Data from PMC11795524, “Melanin-Binding-Based Discovery of Topically Instilled Carbonic Anhydrase Inhibitors for Targeted Delivery and Prolonged Action in the Eye” (Molecular Pharmaceutics, 2025).

Columns and labels:
[1] = In vitro melanin binding by microscale thermophoresis / initial fluorescence (Monolith NT.115 pico)
Description: Melanin binding of the CAI-II compounds was studied with a Monolith NT.115 pico (NanoTemper Technologies GmbH, Munich, Germany) device using the method of […] et al. […] Otherwise, normalized fluorescence signals and the ratio of relative fluorescence after heating (MST mode) were used. The MST software was used in expert mode to allow heating for 30 s. […] As ligand autofluorescence may interfere with the assay, their autofluorescence values were pretested with the detector used in experiment (nanoblue or pico-red). Fluorescence of the ligand should be below 20% of melanin fluorescence. Sample aggregation and adsorption to the capillaries were used also as exclusion criteria.

[2] = test system: albino rabbits (New Zealand White); experiment: IOP study in albino rabbits after single eye drop; assay type: in vivo, rabbit; details: single 25 μL eye drop; CAI 0.5 or 1.0%, dorzolamide 2%; n = 5
Description: Five 3–5 months old albino (New Zealand White, all females) and five 3–6 months old pigmented rabbits (Chinchilla Bastard, 1 male and 4 females) were purchased from Charles River Laboratories, UK and Germany, respectively. Prior to the experiments, the rabbits were habituated to handling, and the baseline values of IOP were measured. During the experiments, rabbits weighed 2.4–4.0 kg.
First, stock solutions of CAIs (250 mg/mL) in dimethyl sulfoxide (Sigma-Aldrich, Germany) were prepared. These stock solutions were diluted with PBS (pH 7.4) to obtain 1 mg/mL (0.1%) or 10 mg/mL (1%) solutions. Water-solubility of the compounds was enhanced with 2-hydroxypropyl-β-cyclodextrin (Sigma-Aldrich, Germany) (Table 1).
The CAI solutions were tested in albino rabbits (eye drops of 0.1, and 0.5 or 1.0%) and in pigmented rabbits (0.5 or 1.0%). The novel CAI concentrations in solutions were determined based on the drug solubility with the aim to load the highest possible drug concentration to the single eye drop.
The IOP levels in the rabbits were measured with a tonometer (Tonometer Pro, Icare Finland Ltd.). After baseline IOP measurements, a single eye drop (25 μL) was applied to the left eye, whereas the right eye was not treated. After eye drop instillation, the eyelids were kept open manually for 1 min. The IOP was measured from both eyes of the rabbits at 0.5, 1, 2, 3, 4, 5, 6, 7, and 8 h after eye drop instillation. In the case of the pigmented rabbits, the measurements were continued until 10 h postinstillation, and further until the IOP had returned to the normal baseline.
The CAIs were tested in the same rabbits to minimize interindividual data variation. Washout periods of at least 3 days were used between instillation of different compounds. The experiments started always at 8 a.m. to eliminate bias due to diurnal IOP fluctuation. At each time point, the pressure was measured three times with the same eye, and the average values were calculated and used in data analysis.

[3] = Ocular pharmacokinetics in albino rats (iris-ciliary body, 3H-A01); assay type: in vivo, rat
Description: Eight albino rats (RccHan/Wist) and 18 pigmented rats (HsdOla/LH) were obtained from Envigo Laboratories B.V. (The Netherlands) and were used in pharmacokinetic experiments. Additional 13 albino and 13 pigmented rats were used in generation of the analytical standards. Young adult (3–4 months; 340–445 g) rats were used.
To conduct the pharmacokinetic study, bromo-containing CAI A15 (molecular structure presented in Table 1) was conveniently converted into [^3H]-A01 through catalytic dehalogenation in tritium gas. A15 (3.05 mg, 8.2 μmol) was dissolved in dimethylformamide (0.3 mL) and exposed to 99 mbar of tritium gas in a tritium manifold system for 1.5 h in the presence of 10% palladium on carbon (0.57 mg). Following filtration, the reaction mixture underwent double lyophilization with 1 mL ethanol to eliminate labile tritium. […] The crude material was purified via high-performance liquid chromatography, employing a Reprosil-Pur C18-HD column (250 × 10 mm, 5 μm), with a mobile phase comprising 40% acetonitrile in 50 mM ammonium hydrogen carbonate. Purified fractions were subsequently combined, subjected to solid-phase extraction, and eluted with ethanol. Radiochemical analysis indicated a purity exceeding 97%, with a molar activity of 0.29 TBq/mmol (7.9 Ci/mmol) and a total activity of 850 MBq (23 mCi). The solution of 1% A01 (10 mg/mL) was prepared similarly as in the IOP study (see Table 1) except that the solution contained also 72 μg/mL of [^3H]–A01 (specific activity 27.21 mCi/mg). The solution was prepared freshly for each experiment.
Seven μL of A01 solution (10 mg/mL including 72 μg/mL of ^3H–A01) was topically applied to both eyes of albino and pigmented rats. Rats were euthanized with carbon dioxide and cervical dislocation. The eyes (n = 4) of albino rats were collected 0.5, 2, 4, and 7 h after treatment. The eyes of pigmented rats were dissected 0.5, 2, 4, 7, 24, 48, 72, 144, and 240 h after eye drop instillation. The eyes were enucleated and dissected immediately after euthanasia. Iris-ciliary body was dissected, snap frozen on dry ice, and stored at −80 °C until analysis. The analyses were conducted within 24 h from tissue dissection.
Bound and unbound radioactivity of tritiated A01 was determined from dissected iris-ciliary body samples. First, the tissues were mechanically homogenized and diluted with 0.9% sodium chloride (weight ratio 35:1). Then, cellular unbound A01 was released from the iris-ciliary body cells by freezing and thawing the solutions three times with dry ice and a water bath (37 °C). Thereafter, the supernatant and pellet were separated by centrifuging the samples for 10 min at 13,000 rpm. The pellets were dissolved by using 60 min incubation in 100 μL of Solvable (PerkinElmer, Waltham, MA, USA). The samples were then bleached with 10 μL of hydrogen peroxide for 30 min. The pellet volume was calculated as the difference between the total and supernatant volumes.
After subtracting the background radioactivity, the measured net counts per minute (cpm) were converted to disintegrations per minute (dpm) taking into account color quenching and device efficiency. Standard curves were generated for each matrix (albino and pigmented supernatants and pellets; Appendix Figure 1). […] Signal to noise ratios of measured pellet and supernatant samples in liquid scintillation counting are shown in Appendix Table 3.

[4] = iris-ciliary body, single topical eye drop

What does the source list for `C/C(=N\Nc1ccc(S(N)(=O)=O)cc1)c1cccnc1` [A01]?
Melanin binding classification ([1]; class by Kd): high (high (<65 μM)); Kd ([1]; melanin nanoparticles 0.5 mg/mL, IF or MST mode, 68% confidence, read-out: Kd ± confidence (melanin binding)): 48 ± 13 µM; AUC0-last ± SD in albino rabbits (IOP decrease vs time) [2]: 19.95 ± 7.16 mmHg x h; concentration at 4 h ([3]; RccHan/Wist (albino), rat, topical, 7 µL of 10 mg/mL solution per eye, albino iris-ciliary body, 4 h, read-out: free concentration by 4 h): ~50 ng/g; tmax (bound drug) ([3]; albino eyes): 2 h; tmax(total drug) ([3]; albino eyes): 2 h; bound concentrations ([3]; albino iris-ciliary body): < 0.05 ng/mg; bound fraction ([3]; albino iris-ciliary body): below 10%; total concentration after decline ([3]; albino iris-ciliary body): ≈ 0.05 ng/mg; Cmax,unbound ([3]; albino iris-ciliary body, 2 h postdosing): 0.50 ng/mg; Cmax, total A01 concentration (bound + unbound) ([3]; albino iris-ciliary body, 2 h postdosing, 7 μL eye drop 10 mg/mL): 0.54 ng/mg; AUC0-last in albino tissues, bound A01 [3, 4]: 0.09 (ng/mg) × h; AUC0-last in albino tissues, total A01 [3, 4]: 1.37 (ng/mg) × h; AUC0-last in albino tissues, unbound A01 [3, 4]: 1.29 (ng/mg) × h
